Patent US4803157A, “Hydrolyzable fluorescent substrates for phosphatases and analytical use thereof” (Eastman Kodak Company, priority 1986, dated 1989)
Where a name gives a salt, the structure may show the parent alone.

Key:
[1] = system: beef liver ALP; assay: Solution assay for alkaline phosphatase (fluorescence); type: biochemical; conditions: excitation 535 nm, emission 580 nm
Protocol: A solution was prepared using the substrate of Example 1 (10^-5 molar), magnesium acetate ([…]) and TRIS buffer (0.1 molar, pH 8.5). One milliliter of this solution was placed in each of two test cells. To one cell was added beef liver ALP (100 μl, 10^-5 molar). No ALP was placed in the second cell.
The relative fluorescence of the solution in the test cell containing the ALP-hydrolyzed substrate was measured at an excitation of 535 nm and an emission of 580 nm. […]

[2] = system: calf intestine alkaline phosphatase; assay: Kinetic study of alkaline phosphatase with substrate (double reciprocal plot); type: biochemical; conditions: 540 nm, substrate 0.1-10 mmolar, enzyme 0.01 I.U./ml, sodium carbonate 100 mmolar, pH 10
Description: The magnesium salt substrate prepared in Example 1 was used to determine reaction rates and kinetic parameters for alkaline phosphatase at 540 nm. The study was done by using the substrate (concentration range 0.1 mmolar to 10 mmolar), calf intestine alkaline phosphatase (0.01 I.U./ml), sodium carbonate (100 mmolar, pH 10), magnesium chloride (1 mmolar) and zinc perchlorate (1 mmolar). From the data obtained, a double reciprocal plot was drawn.

Compound	relative fluorescence of unhydrolyzed substrate ([1]; no ALP added)	relative fluorescence of ALP-hydrolyzed substrate ([1]; substrate 10^-5 molar, TRIS 0.1 molar pH 8.5, with beef liver ALP)	rate of reaction (Vmax) [2]	Km ([2]; MgCl2 1 mmolar, zinc perchlorate 1 mmolar, read-out: Michaelis constant (Km)) [µM]
O=C1C=Cc2ccc(OP(=O)(O)O)c3cccc1c23 [substrate of Example 1, PHENALENONE-6-PHOSPHATE]	Minimal fluorescence	rapid generation of fluorescence	–	–
O=C1C=Cc2ccc(OP(=O)(O)O)c3cccc1c23 [phenalenone-6-phosphate magnesium salt]	–	–	0.029 absorbance (A) units/minute	1400
